In one experiment the target is T1, recombinant murine ANT1 (mANT1; adenine nucleotide translocase 1) (Mus musculus, UniProt P48962).
T1 construct: gene Slc25a4
T1 sequence (P48962 2-298): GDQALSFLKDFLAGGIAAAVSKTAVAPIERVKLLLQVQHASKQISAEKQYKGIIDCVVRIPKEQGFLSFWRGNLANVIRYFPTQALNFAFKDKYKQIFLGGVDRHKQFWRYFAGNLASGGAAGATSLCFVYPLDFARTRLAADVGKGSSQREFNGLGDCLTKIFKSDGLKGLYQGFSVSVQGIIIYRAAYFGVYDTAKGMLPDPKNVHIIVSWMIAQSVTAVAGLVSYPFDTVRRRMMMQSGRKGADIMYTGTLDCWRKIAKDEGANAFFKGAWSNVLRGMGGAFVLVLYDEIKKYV
Nature of the experiment: inhibition of fatty-acid-activated proton conductance, planar lipid bilayer with reconstituted ANT1.
Conditions: not given
Type of experiment: biochemical.
As to `CO[C@H](C/C=C\C=C\CC/C=C/C[C@H](C)/C=C/C(=C\C(=O)O)CC(=O)O)/C(C)=C\C=C(/C)C(=O)O` [bongkrekic acid], the EC50 (commonly the midpoint of the concentration-response curve) was found to be 32.3 ± 11.4 µM.

The experiment is the same for the next values; noted with them: read-out: EC50.
With `Nc1nc2c(ncn2[C@@H]2O[C@H](COP(=O)(O)OP(=O)(O)O)[C@@H](O)[C@H]2O)c(=O)[nH]1` [GDP], the EC50 worked out at 5410 ± 2010 µM. Consider `Nc1ncnc2c1ncn2[C@@H]1O[C@H](COP(=O)(O)O)[C@@H](O)[C@H]1O` [AMP], for which the EC50 came to 2660 ± 817 µM. The same measure, in the same setting: for `Nc1ncnc2c1ncn2[C@@H]1O[C@H](COP(=O)(O)OP(=O)(O)O)[C@@H](O)[C@H]1O` [ADP] the value was 1310 ± 537 µM; for `Nc1ncnc2c1ncn2[C@@H]1O[C@H](COP(=O)(O)OP(=O)(O)OP(=O)(O)O)[C@@H](O)[C@H]1O` [ATP], 250 ± 34 µM; for `Nc1nc2c(ncn2[C@@H]2O[C@H](COP(=O)(O)OP(=O)(O)OP(=O)(O)O)[C@@H](O)[C@H]2O)c(=O)[nH]1` [GTP], 3320 ± 93 µM.

(Values after article PMC7958136, “ANT1 Activation and Inhibition Patterns Support the Fatty Acid Cycling Mechanism for Proton Transport” (International Journal of Molecular Sciences, 2021).)
